Assays:
Melanocortin receptor 4 [1] = biological target: T1, Melanocortin receptor 4 (Homo sapiens, UniProt P32245); experiment: Displacement of [125I]NDP-alpha-MSH from human MC4 receptor expressed in CHO cells; format: cell-based
Melanocortin receptor 3 [2] = biological target: T2, Melanocortin receptor 3 (Homo sapiens, UniProt P41968); experiment: Displacement of [125I]NDP-alpha-MSH from human MC3 receptor expressed in CHO cells; format: cell-based
[3] = biological target: T3, Melanocyte-stimulating hormone receptor (Homo sapiens, UniProt Q01726); experiment: Displacement of [125I]NDP-alpha-MSH from human MC1 receptor expressed in CHO cells; format: cell-based
Target sequence in this assay (Q01726 whole entry): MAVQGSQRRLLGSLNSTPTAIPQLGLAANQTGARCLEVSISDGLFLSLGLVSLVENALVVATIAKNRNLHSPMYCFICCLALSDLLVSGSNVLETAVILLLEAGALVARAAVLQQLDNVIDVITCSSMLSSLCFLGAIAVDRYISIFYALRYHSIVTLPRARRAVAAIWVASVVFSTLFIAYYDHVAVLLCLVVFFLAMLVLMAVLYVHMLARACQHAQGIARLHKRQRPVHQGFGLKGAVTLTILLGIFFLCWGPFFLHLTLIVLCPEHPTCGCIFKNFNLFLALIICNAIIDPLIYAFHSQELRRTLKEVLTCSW

Melanocortin receptor 3 [4] = biological target: T2, Melanocortin receptor 3; experiment: Agonist activity at human MC3 receptor expressed in CHO cells assessed as increase of alpha-MSH-induced cAMP accumulation; format: functional, cell-based
Melanocortin receptor 5 [5] = biological target: T4, Melanocortin receptor 5 (Homo sapiens, UniProt P33032); experiment: Displacement of [125I]NDP-alpha-MSH from human MC5 receptor expressed in CHO cells; format: cell-based
T4 sequence (P33032 whole entry): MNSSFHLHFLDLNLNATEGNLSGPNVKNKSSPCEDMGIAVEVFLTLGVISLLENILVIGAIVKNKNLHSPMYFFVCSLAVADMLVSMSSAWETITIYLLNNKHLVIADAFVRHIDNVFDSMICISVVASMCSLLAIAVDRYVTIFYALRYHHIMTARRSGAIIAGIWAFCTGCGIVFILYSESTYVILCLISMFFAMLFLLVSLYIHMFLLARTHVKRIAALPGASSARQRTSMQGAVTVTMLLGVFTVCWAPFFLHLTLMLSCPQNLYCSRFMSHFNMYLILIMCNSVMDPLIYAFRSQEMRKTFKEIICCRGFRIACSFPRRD

Melanocortin receptor 4 [6] = biological target: T1, Melanocortin receptor 4; experiment: Agonist activity at human MC4 receptor expressed in CHO cells assessed as increase of alpha-MSH-induced cAMP accumulation; format: functional, cell-based
Melanocortin receptor 5 [7] = biological target: T4, Melanocortin receptor 5; experiment: Agonist activity at human MC5 receptor expressed in CHO cells assessed as increase of alpha-MSH-induced cAMP accumulation; format: functional, cell-based
[8] = Volume of distribution at steady state in Sprague-Dawley rat at 1 mg/kg, iv and 4 mg/kg, po; format: ADME, organism-based; details: in vivo, read-out: Vdss
[9] = Half life in Sprague-Dawley rat at 1 mg/kg, iv and 4 mg/kg, po; format: ADME, organism-based; details: in vivo
[10] = Oral bioavailability in Sprague-Dawley rat at 4 mg/kg; format: ADME, organism-based; details: in vivo
[11] = Clearance in Sprague-Dawley rat at 1 mg/kg, iv and 4 mg/kg, po; format: ADME, organism-based; details: in vivo
[12] = biological target: T3, Melanocyte-stimulating hormone receptor; experiment: Agonist activity at human MC1 receptor expressed in CHO cells assessed as increase of alpha-MSH-induced cAMP accumulation; format: functional, cell-based
Target sequence in this assay (Q01726 whole entry): as the sequence (Q01726 whole entry) above

Homo sapiens [13] = species: Homo sapiens; experiment: Selectivity ratio of EC50 for human MC1 receptor to EC50 for human MC4 receptor
Melanocortin receptor 4 [14] = biological target: T1, Melanocortin receptor 4; experiment: Agonist activity at human MC4 receptor expressed in CHO cells assessed as increase of alpha-MSH-induced cAMP accumulation at 10 uM relative to alpha-MSH; format: functional, cell-based
Melanocortin receptor 3 [15] = biological target: T2, Melanocortin receptor 3; experiment: Agonist activity at human MC3 receptor expressed in CHO cells assessed as increase of alpha-MSH-induced cAMP accumulation at 10 uM relative to alpha-MSH; format: functional, cell-based
Homo sapiens [16] = species: Homo sapiens; experiment: Selectivity ratio of IC50 for human MC1 receptor to IC50 for human MC4 receptor
[17] = biological target: T3, Melanocyte-stimulating hormone receptor; experiment: Agonist activity at human MC1 receptor expressed in CHO cells assessed as increase of alpha-MSH-induced cAMP accumulation at 10 uM relative to alpha-MSH; format: functional, cell-based
Target sequence in this assay (Q01726 whole entry, looked up): as the sequence (Q01726 whole entry) above

Homo sapiens [18] = species: Homo sapiens; experiment: Selectivity ratio of IC50 for human MC5 receptor to IC50 for human MC4 receptor
Melanocortin receptor 5 [19] = biological target: T4, Melanocortin receptor 5; experiment: Agonist activity at human MC5 receptor expressed in CHO cells assessed as increase of alpha-MSH-induced cAMP accumulation at 10 uM relative to alpha-MSH; format: functional, cell-based
Homo sapiens [20] = species: Homo sapiens; experiment: Selectivity ratio of EC50 for human MC5 receptor to EC50 for human MC4 receptor

T1 sequence (P32245 whole entry): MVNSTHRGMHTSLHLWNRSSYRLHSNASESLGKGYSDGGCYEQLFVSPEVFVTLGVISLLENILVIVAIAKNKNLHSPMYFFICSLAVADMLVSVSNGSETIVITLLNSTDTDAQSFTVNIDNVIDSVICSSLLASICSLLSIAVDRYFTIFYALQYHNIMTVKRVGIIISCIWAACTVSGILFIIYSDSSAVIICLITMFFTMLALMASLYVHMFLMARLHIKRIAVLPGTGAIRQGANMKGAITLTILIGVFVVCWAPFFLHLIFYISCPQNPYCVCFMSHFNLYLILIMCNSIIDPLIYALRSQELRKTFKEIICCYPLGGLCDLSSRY
T2 sequence (P41968 whole entry): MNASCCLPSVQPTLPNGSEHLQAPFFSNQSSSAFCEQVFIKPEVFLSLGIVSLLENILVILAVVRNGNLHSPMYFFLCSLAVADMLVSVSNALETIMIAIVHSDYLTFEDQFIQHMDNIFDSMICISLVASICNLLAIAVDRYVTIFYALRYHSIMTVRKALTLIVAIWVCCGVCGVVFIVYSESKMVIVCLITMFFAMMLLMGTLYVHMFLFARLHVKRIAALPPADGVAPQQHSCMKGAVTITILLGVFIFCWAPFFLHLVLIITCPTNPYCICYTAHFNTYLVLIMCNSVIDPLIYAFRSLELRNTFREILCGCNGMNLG

IC50 (Melanocortin receptor 4 [1]) [nM] | IC50 (Melanocortin receptor 3 [2]) [nM] | IC50 [3] [nM] | EC50 (Melanocortin receptor 3 [4]) [nM] | IC50 (Melanocortin receptor 5 [5]) [nM] | EC50 (Melanocortin receptor 4 [6]) [nM] | EC50 (Melanocortin receptor 5 [7]) [nM] | Vd [8] [L/kg] | half-life [9] [h] | bioavailability [10] [%] | clearance [11] [mL/min/kg] | EC50 [12] [nM] | Ratio EC50 (Homo sapiens [13]) | Activity (Melanocortin receptor 4 [14]) [%] | Activity (Melanocortin receptor 3 [15]) [%] | Ratio IC50 (Homo sapiens [16]) | Activity [17] [%] | Ratio IC50 (Homo sapiens [18]) | Activity (Melanocortin receptor 5 [19]) [%] | Ratio EC50 (Homo sapiens [20]) | SMILES
28 | 6500 | 1800 | 2000 | 660 | 25 | 2800 | 6.8 | 2.2 | 12 | 42 | 890 | – | – | – | – | – | – | – | – | CC(=O)N(CC(C1CCCCC1)N1CCN(C(=O)[C@@H]2CN(C(C)(C)C)C[C@H]2c2ccc(F)cc2F)CC1)C(C)C (stereo in doubt; 19B) [listing 1 of 2 here]
– | – | – | – | – | – | – | – | – | – | – | – | 20 | 100 | 87 | 20 | 62 | 20 | 76 | 20 | CC(C)CC(CN(C(C)C)S(C)(=O)=O)N1CCN(C(=O)[C@@H]2CN(C(C)(C)C)C[C@H]2c2ccc(F)cc2F)CC1 (single isomer, unassigned; diastereomer 2) [listing 1 of 2 here]
35 | – | – | – | – | 10 | – | 3.8 | 1.8 | 26 | 31 | – | – | – | – | – | – | – | – | – | CC(C)N(CC(C1CCCCC1)N1CCN(C(=O)[C@@H]2CN(C(C)(C)C)C[C@H]2c2ccc(F)cc2F)CC1)C(=O)c1ncccn1 (single isomer, unassigned; diastereomer 1)
– | – | – | – | – | – | – | – | – | – | – | – | 20 | 106 | 102 | 20 | 60 | 20 | 62 | 20 | CC(C)N(CC(C1CCCCC1)N1CCN(C(=O)[C@@H]2CN(C(C)(C)C)C[C@H]2c2ccc(F)cc2F)CC1)C(=O)c1cnn(C(C)C)c1 (single isomer, unassigned; diastereomer 1)
13 | 3600 | 1000 | 1800 | 250 | 13 | > 5000 | 6 | 2.7 | 21 | 25 | 540 | – | – | – | – | – | – | – | – | CC(C)N(CC(C1CCCCC1)N1CCN(C(=O)[C@@H]2CN(C(C)(C)C)C[C@H]2c2ccc(F)cc2F)CC1)S(C)(=O)=O (single isomer, unassigned; diastereomer 2) [listing 1 of 2 here]
– | – | – | – | – | – | – | – | – | – | – | – | 20 | 117 | 94 | 20 | 63 | 20 | 57 | 20 | CC(C)N(CC(C1CCCCC1)N1CCN(C(=O)[C@@H]2CN(C(C)(C)C)C[C@H]2c2ccc(F)cc2F)CC1)S(C)(=O)=O (single isomer, unassigned; diastereomer 2) [listing 2 of 2 here]
260 | – | – | – | – | 570 | – | 19 | 34 | 22 | 7.3 | – | – | 101 | – | – | – | – | – | – | CCN(CC)CC(C1CCCCC1)N1CCN(C(=O)[C@@H]2CN(C(C)(C)C)C[C@H]2c2ccc(F)cc2F)CC1 (stereo not given in full)
27 | 4900 | 5000 | 2500 | 2800 | 19 | > 5000 | – | – | – | – | > 5000 | – | – | – | – | – | – | – | – | CC(C)CC(CN(C(C)C)S(C)(=O)=O)N1CCN(C(=O)[C@@H]2CN(C(C)(C)C)C[C@H]2c2ccc(F)cc2F)CC1 (single isomer, unassigned; diastereomer 2) [listing 2 of 2 here]
– | – | – | – | – | – | – | – | – | – | – | – | 20 | 113 | 109 | 20 | 77 | 20 | 56 | 20 | CC(=O)N(CC(CC(C)C)N1CCN(C(=O)[C@@H]2CN(C(C)(C)C)C[C@H]2c2ccc(F)cc2F)CC1)C(C)C (single isomer, unassigned; diastereomer 2)
– | – | – | – | – | – | – | – | – | – | – | – | 20 | 123 | 81 | 20 | 61 | 20 | 64 | 20 | CC(=O)N(CC(C1CCCCC1)N1CCN(C(=O)[C@@H]2CN(C(C)(C)C)C[C@H]2c2ccc(F)cc2F)CC1)C(C)C (stereo in doubt; 19B) [listing 2 of 2 here]

— ChEMBL document CHEMBL1208738, “Optimization of privileged structures for selective and potent melanocortin subtype-4 receptor ligands” (Bioorg Med Chem Lett, 2010)
